# According to patent US20250017914A1, “6-AZA-QUINOLINE DERIVATIVES AND RELATED USES” (Black Diamond Therapeutics, Inc., priority 2021, published 2025):
# Molecular target: T1, BaF3 BRAF-KIAA1549 fusion cells (Homo sapiens, UniProt P15056)
# T1 construct: The BRAF-KIAA1549 fusion mutant was subcloned into pMXs-IRES-Blasticidin (RTV-016, Cell Biolabs, San Diego, CA); No tag given; Q9HCM3 (UPF0606 protein KIAA1549)
# Assay: BaF3 BRAF-KIAA1549 fusion cell proliferation assay (CellTiterGlo, 96 hours)
# Assay type: cell-based
# Conditions: Table A1
# In short: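 BaF3 cells retrovirally transduced with BRAF-KIAA1549 fusion and blasticidin-selected were plated at 7×10^4 c/well in RPMI, 10% heat-inactivated FBS, 1% L-glutamine, and exposed to compound for 96 hours. Growth was read as ATP content by CellTiterGlo luminescence. IC50 was fitted by Levenberg-Marquardt, normalised to DMSO-treated cells.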
# T1 sequence (P15056 whole entry, change not shown, the tested form may be a part): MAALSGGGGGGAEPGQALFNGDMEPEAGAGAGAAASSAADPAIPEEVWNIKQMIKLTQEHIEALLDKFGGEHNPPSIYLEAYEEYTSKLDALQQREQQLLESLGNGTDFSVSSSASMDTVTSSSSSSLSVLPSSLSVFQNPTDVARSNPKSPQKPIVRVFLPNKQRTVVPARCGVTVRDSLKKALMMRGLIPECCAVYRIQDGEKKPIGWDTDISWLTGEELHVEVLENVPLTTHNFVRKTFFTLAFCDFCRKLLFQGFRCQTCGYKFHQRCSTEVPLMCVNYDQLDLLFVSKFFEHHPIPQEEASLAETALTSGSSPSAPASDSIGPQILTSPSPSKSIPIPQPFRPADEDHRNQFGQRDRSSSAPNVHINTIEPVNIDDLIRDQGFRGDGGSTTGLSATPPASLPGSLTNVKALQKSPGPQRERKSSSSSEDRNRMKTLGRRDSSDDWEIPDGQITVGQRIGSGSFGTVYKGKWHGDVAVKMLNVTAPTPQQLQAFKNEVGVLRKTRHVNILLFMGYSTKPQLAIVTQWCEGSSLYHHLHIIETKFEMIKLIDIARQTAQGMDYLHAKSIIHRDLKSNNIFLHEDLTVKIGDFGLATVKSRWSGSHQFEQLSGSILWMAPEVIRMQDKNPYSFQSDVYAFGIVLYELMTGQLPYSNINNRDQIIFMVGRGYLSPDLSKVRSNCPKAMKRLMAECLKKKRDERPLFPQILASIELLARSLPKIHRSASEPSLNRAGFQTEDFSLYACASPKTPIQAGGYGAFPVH
row,SMILES,GI50 [nM]
1,"CNc1cc2ncc(-c3cc(NC(=O)c4cc(C(C)(C)C#N)ccn4)cnn3)cc2cn1 [Compound 49, 4-(2-Cyanopropan-2-yl)-N-(6-(7-(methylamino)-1,6-naphthyridin-3-yl)pyridazin-4-yl)picolinamide]",< 20
2,"CNc1cc2ncc(-c3cc(NC(=O)c4cncc(C(F)(F)F)c4)cnc3C)cc2cn1 [Compound 21, N-(6-Methyl-5-(7-(methylamino)-1,6-naphthyridin-3-yl)pyridin-3-yl)-5-(trifluoromethyl)nicotinamide]",20 to 100
3,"CNc1cc2ncc(-c3cc(NC(=O)C[C@@H]4C[C@H](C(F)(F)F)CCO4)cnc3C)cc2cn1 (single isomer, unassigned) [Compound 35]",20 to 100
4,"CNc1cc2ncc(-c3cc(NC(=N)c4cc(C(F)(F)F)ccn4)ccc3C)cc2cn1 [Compound 61, N-(4-Methyl-3-(7-(methylamino)-1,6-naphthyridin-3-yl)phenyl)-4-(trifluoromethyl)picolinimidamide]",100 to 500
5,"CNc1cc2ncc(-c3cc(NC(=O)CN4CCC[C@H](C(F)(F)F)C4)cnc3C)cc2cn1 [Compound 62, (S)—N-(6-Methyl-5-(7-(methylamino)-1,6-naphthyridin-3-yl)pyridin-3-yl)-2-(3-(trifluoromethyl)piperidin-1-yl)acetamide]",20 to 100
6,"CNc1cc2ncc(-c3cc(NC(=O)c4cc(C(F)F)c(F)cn4)cnc3C)cc2cn1 [Compound 66, 4-(Difluoromethyl)-5-fluoro-N-(6-methyl-5-(7-(methylamino)-1,6-naphthyridin-3-yl)pyridin-3-yl)picolinamide]",20 to 100
7,"CNc1cc2ncc(-c3cc(NC(=O)c4cc(C(C)(C)C#N)ccn4)c(F)cc3F)cc2cn1 [Compound 43, 4-(2-Cyanopropan-2-yl)-N-(2,4-difluoro-5-(7-(methylamino)-1,6-naphthyridin-3-yl)phenyl)picolinamide]",20 to 100
8,"CNc1cc2ncc(-c3cc(NC(=O)c4cc(C5(C#N)CC5)ccn4)ccc3C)cc2cn1 [Compound 16, 4-(1-Cyanocyclopropyl)-N-(4-methyl-3-(7-(methylamino)-1,6-naphthyridin-3-yl)phenyl)picolinamide]",< 20
9,"CNc1cc2ncc(-c3cc(NC(=O)c4cc(C(C)(F)F)ccn4)ccc3C)cc2cn1 [Compound 12, 4-(1,1-Difluoroethyl)-N-(4-methyl-3-(7-(methylamino)-1,6-naphthyridin-3-yl)phenyl)picolinamide]",20 to 100
10,"CNc1cc2ncc(-c3cc(NC(=O)c4ccnc(C(F)F)c4)ccc3C)cc2cn1 [Compound 8, 2-(Difluoromethyl)-N-(4-methyl-3-(7-(methylamino)-1,6-naphthyridin-3-yl)phenyl)isonicotinamide]",20 to 100

# Next, values leading:
row,GI50 [nM],SMILES
1,20 to 100,"CNc1cc2ncc(-c3cc(NC(=O)c4cc(C(C)(C)C#N)ccn4)cnc3C)cc2cn1 [Compound 30, 4-(2-Cyanopropan-2-yl)-N-(6-methyl-5-(7-(methylamino)-1,6-naphthyridin-3-yl)pyridin-3-yl)picolinamide]"
2,20 to 100,"CNc1cc2ncc(-c3cc(NC(=O)c4cc(C(C)(F)F)ccn4)cnc3C)cc2cn1 [Compound 23, 4-(1,1-Difluoroethyl)-N-(6-methyl-5-(7-(methylamino)-1,6-naphthyridin-3-yl)pyridin-3-yl)picolinamide]"
3,< 20,"CNc1cc2ncc(-c3cc(NC(=O)c4cc(C(F)(F)F)ccn4)cnc3C)cc2cn1 [Compound 20, N-(6-Methyl-5-(7-(methylamino)-1,6-naphthyridin-3-yl)pyridin-3-yl)-4-(trifluoromethyl)picolinamide]"
4,20 to 100,"CNc1cc2ncc(-c3cc(NC(=O)c4ccnc(C5CC(F)(F)C5)c4)cnc3C)cc2cn1 [Compound 34, 2-(3,3-Difluorocyclobutyl)-N-(6-methyl-5-(7-(methylamino)-1,6-naphthyridin-3-yl)pyridin-3-yl)isonicotinamide]"
5,< 20,"CNc1cc2ncc(-c3cc(NC(=O)c4ccnc(C(C)(C)C#N)c4)cnc3C)cc2cn1 [Compound 55, 2-(2-Cyanopropan-2-yl)-N-(6-methyl-5-(7-(methylamino)-1,6-naphthyridin-3-yl)pyridin-3-yl)isonicotinamide]"
6,20 to 100,"CNc1cc2ncc(-c3cc(NC(=O)c4cc(C(C)(C)C#N)ccn4)ccc3F)cc2cn1 [Compound 40, 4-(2-cyanopropan-2-yl)-N-(4-fluoro-3-(7-(methylamino)-1,6-naphthyridin-3-yl)phenyl)picolinamide]"
7,< 20,"CNc1cc2ncc(-c3cc(NC(=O)c4ccnc(C5(F)CC5)c4)cnc3C)cc2cn1 [Compound 33, 2-(1-Fluorocyclopropyl)-N-(6-methyl-5-(7-(methylamino)-1,6-naphthyridin-3-yl)pyridin-3-yl)isonicotinamide]"

# Same assay, conditions: Table A2
row,SMILES,GI50 [nM]
1,"CNc1cc2ncc(-c3cc(NC(=O)c4cnc5n4CC(C)CC5)ccc3C)cc2cn1 (stereo not shown) [Compound 204, 6-methyl-N-(4-methyl-3-(7-(methylamino)-1,6-naphthyridin-3-yl)phenyl)-5,6,7,8-tetrahydroimidazo[1,2-a]pyridine-3-carboxamide]",< 20
2,"CNc1cc2ncc(-c3cc(NC(=O)c4cnc5n4CCCC5)ccc3C)cc2cn1 [Compound 216, N-(4-methyl-3-(7-(methylamino)-1,6-naphthyridin-3-yl)phenyl)-5,6,7,8-tetrahydroimidazo[1,2-a]pyridine-3-carboxamide]",100 to 500
3,"CNc1cc2ncc(-c3cc(C(=O)Nc4cccc(C(C)(C)C#N)c4)cnn3)cc2cn1 [Compound 196, N-(3-(2-cyanopropan-2-yl)phenyl)-6-(7-(methylamino)-1,6-naphthyridin-3-yl)pyridazine-4-carboxamide]",≥ 500
4,"CNc1cc2ncc(-c3cc(NC(=O)c4n[nH]c5c4C[C@@H]4C[C@H]54)cnc3C)cc2cn1 [Compound 252, (4aS,5aS)—N-(6-methyl-5-(7-(methylamino)-1,6-naphthyridin-3-yl)pyridin-3-yl)-4,4a,5,5a-tetrahydro-1H-cyclopropa[4,5]cyclopenta[1,2-c]pyrazole-3-carboxamide]",20 to 100
5,"CNc1cc2ncc(-c3cc(NC(=O)c4c[nH]c5ccccc45)cnc3C)cc2cn1 [Compound 194, N-(6-methyl-5-(7-(methylamino)-1,6-naphthyridin-3-yl)pyridin-3-yl)-1H-indole-3-carboxamide]",20 to 100
6,"CNc1cc2ncc(-c3cc(NC(=O)c4n[nH]c5c4CN(C)CC5)cnc3C)cc2cn1 [Compound 244, 5-methyl-N-(6-methyl-5-(7-(methylamino)-1,6-naphthyridin-3-yl)pyridin-3-yl)-4,5,6,7-tetrahydro-1H-pyrazolo[4,3-c]pyridine-3-carboxamide]",≥ 500
7,"CNc1cc2ncc(-c3cc(NC(=O)c4cnc5n4CCCC5C)ccc3C)cc2cn1 (stereo not shown) [Compound 214, 8-methyl-N-(4-methyl-3-(7-(methylamino)-1,6-naphthyridin-3-yl)phenyl)-5,6,7,8-tetrahydroimidazo[1,2-a]pyridine-3-carboxamide]",20 to 100
8,"CNc1cc2ncc(-c3cc(NC(=O)c4csc5c4CCCC5)cnc3C)cc2cn1 [Compound 234, N-(6-methyl-5-(7-(methylamino)-1,6-naphthyridin-3-yl)pyridin-3-yl)-4,5,6,7-tetrahydrobenzo[b]thiophene-3-carboxamide]",20 to 100
9,"CNc1cc2ncc(-c3cc(NC(=O)c4cccc5c4OC(C)C5)cnc3C)cc2cn1 (stereo not shown) [Compound 239, 2-methyl-N-(6-methyl-5-(7-(methylamino)-1,6-naphthyridin-3-yl)pyridin-3-yl)-2,3-dihydrobenzofuran-7-carboxamide]",≥ 500
10,"CNc1cc2ncc(-c3cc(NC(=O)N(C)c4cc(C(F)F)ccn4)ccc3C)cc2cn1 [Compound 189, 1-(4-(difluoromethyl)pyridin-2-yl)-1-methyl-3-(4-methyl-3-(7-(methylamino)-1,6-naphthyridin-3-yl)phenyl)urea]",100 to 500
11,"CNc1cc2ncc(-c3cc(NC(=O)c4ccccc4NC(C)C(F)F)cnc3C)cc2cn1 (stereo not shown) [Compound 226, 2-((1,1-difluoropropan-2-yl)amino)-N-(6-methyl-5-(7-(methylamino)-1,6-naphthyridin-3-yl)pyridin-3-yl)benzamide]",20 to 100
12,"CNc1cc2ncc(-c3cc(NC(=O)c4cccc(C(C)(C)C#N)c4)c(F)cc3C)cc2cn1 [Compound 223, 3-(2-cyanopropan-2-yl)-N-(2-fluoro-4-methyl-5-(7-(methylamino)-1,6-naphthyridin-3-yl)phenyl)benzamide]",20 to 100

# More lines, now with the values ahead:
row,GI50 [nM],SMILES
1,100 to 500,"CNc1ncc2cc(-c3cc(NC(=O)c4ccnc(C5(F)CC5)c4)ccc3C)cnc2c1Cl [Compound 269, N-[3-[8-chloro-7-(methylamino)-1,6-naphthyridin-3-yl]-4-methyl-phenyl]-2-(1-fluorocyclopropyl)pyridine-4-carboxamide]"
2,100 to 500,"CNc1ncc2cc(-c3cc(NC(=O)c4ccnc(C(C)(C)C#N)c4)cnc3C)cnc2c1C#N [Compound 192, N-[5-[8-cyano-7-(methylamino)-1,6-naphthyridin-3-yl]-6-methyl-3-pyridyl]-2-(1-cyano-1-methyl-ethyl)pyridine-4-carboxamide]"
3,20 to 100,"CNc1ncc2cc(-c3cc(NC(=O)c4ccnc(C5(F)CC5)c4)ccc3C)cnc2c1C#N [Compound 271, N-[3-[8-cyano-7-(methylamino)-1,6-naphthyridin-3-yl]-4-methyl-phenyl]-2-(1-fluorocyclopropyl)pyridine-4-carboxamide]"
4,20 to 100,"CNc1cc2ncc(-c3cc(NC(=O)c4cc(C(O)C(C)C)ccn4)cnc3C)cc2cn1 (stereo not shown) [Compound 202, 4-(1-hydroxy-2-methylpropyl)-N-(6-methyl-5-(7-(methylamino)-1,6-naphthyridin-3-yl)pyridin-3-yl)picolinamide]"
5,< 20,"CNc1cc2ncc(-c3cc(NC(=O)c4cccc(C(C)(C)C#N)c4)ccc3C)cc2cn1 [Compound 193, 3-(2-cyanopropan-2-yl)-N-(4-methyl-3-(7-(methylamino)-1,6-naphthyridin-3-yl)phenyl)benzamide]"
